Measurements from patent US8822449B2, “Substituted aminoindanes and analogs thereof, and the pharmaceutical use thereof” (Sanofi, priority 2008, dated 2014).

These compounds were tested against T1, sodium-proton exchanger of subtype 3 (NHE3) (Homo sapiens, UniProt P48764) (assay: Recovery of intracellular pH (pHi) after acidification in LAP1 cells stably expressing NHE3 (BCECF fluorescence, FLIPR)). Details: LAP1, read-out: Activity range (inhibitory effect on NHE3).
T1 construct: expressed in transfected cells
T1 sequence (P48764 26-834): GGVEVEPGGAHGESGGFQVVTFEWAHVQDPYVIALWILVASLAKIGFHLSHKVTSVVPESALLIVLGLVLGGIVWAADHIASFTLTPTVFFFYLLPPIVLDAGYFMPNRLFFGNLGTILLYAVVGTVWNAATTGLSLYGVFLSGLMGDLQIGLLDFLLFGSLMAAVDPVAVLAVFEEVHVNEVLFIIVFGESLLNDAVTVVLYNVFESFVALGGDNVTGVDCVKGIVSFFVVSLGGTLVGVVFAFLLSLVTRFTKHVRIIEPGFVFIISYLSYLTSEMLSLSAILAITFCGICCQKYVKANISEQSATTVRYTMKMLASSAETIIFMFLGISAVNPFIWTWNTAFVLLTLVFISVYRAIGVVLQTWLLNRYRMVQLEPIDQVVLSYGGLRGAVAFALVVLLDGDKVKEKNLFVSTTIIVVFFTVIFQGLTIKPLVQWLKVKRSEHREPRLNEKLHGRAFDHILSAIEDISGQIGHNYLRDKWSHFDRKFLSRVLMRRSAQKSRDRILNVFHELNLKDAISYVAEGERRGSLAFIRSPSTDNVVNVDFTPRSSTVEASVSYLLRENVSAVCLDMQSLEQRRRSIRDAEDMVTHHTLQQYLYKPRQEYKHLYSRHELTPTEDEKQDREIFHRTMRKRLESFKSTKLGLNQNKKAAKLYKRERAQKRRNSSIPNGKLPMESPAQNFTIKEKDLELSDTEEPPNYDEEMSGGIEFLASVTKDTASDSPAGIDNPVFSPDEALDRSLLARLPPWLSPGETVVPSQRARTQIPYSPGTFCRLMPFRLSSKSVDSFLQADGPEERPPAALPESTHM
Type: cell-based

SMILES | inhibition at 10 µM [%]
CS(=O)(=O)c1ccc(O[C@H]2c3c(Cl)sc(Cl)c3CC[C@@H]2N2CCCC2)cc1 (racemic) [Example 253, 1-[1,3-dichloro-4-(4-methanesulfonylphenoxy)-4,5,6,7-tetrahydrobenzo[c]thiophen-5-yl]pyrrolidine] | 20 to 50

Same assay, conditions: LAP1 cells stably expressing NHE3; pH recovery after acidification; range 1 is % inhibition at 10 μM; read-out: Activity range (inhibitory effect on NHE3)

SMILES | IC50 [nM] | inhibition at 10 µM [%]
CS(=O)(=O)c1ccc(OC2c3ccccc3CC2N2CCCC2)c(Cl)c1 (racemic) [Example 265, 1-[rac-trans-(1,2)-1-(2-chloro-4-methanesulfonylphenoxy)indan-2-yl]pyrrolidine] | < 1000 | 
CC1(C)NC(=O)N(c2ccc(O[C@H]3c4cc(Cl)cc(Cl)c4C[C@@H]3N3CC[C@@H](O)C3)c(Cl)c2)C1=O [Example 423, 3-{3-chloro-4-[(1S,2S)-4,6-dichloro-2-((R)-3-hydroxypyrrolidin-1-yl)indan-1-yloxy]phenyl}-5,5-dimethylimidazolidine-2,4-dione] | 1000 to 10000 | 
O=c1ocnn1-c1ccc(O[C@H]2c3cc(Cl)cc(Cl)c3C[C@@H]2N2CC[C@@H](O)C2)cc1 [Example 735, 3-{4-[trans-(1S,2S)-4,6-Dichloro-2-((R)-3-hydroxy-pyrrolidin-1-yl)-indan-1-yloxy]-phenyl}-3H-[1,3,4]oxadiazol-2-one] | 1000 to 10000 | 
N[C@@H]1CCCN([C@@H]2Cc3ccccc3[C@H]2Oc2ccncc2)C1 (racemic) [Example 86, (R)-1-[rac-trans-(1,2)-1-(pyridin-4-yloxy)indan-2-yl]piperidin-3-ylamine] | 1000 to 10000 | 
Cc1noc(C)c1-c1ccc(O[C@H]2c3cc(Cl)cc(Cl)c3C[C@@H]2N2CC[C@@H](O)C2)cc1 [Example 135, (R)-1-{trans-(1S,2S)-4,6-dichloro-1-[4-(3,5-dimethylisoxazol-4-yl)phenoxy]indan-2-yl}pyrrolidin-3-ol] |  | 20 to 50
COCCN1CCCN([C@H]2Cc3c(Cl)cc(Cl)cc3[C@@H]2Oc2ccc(-c3c(C)noc3C)cc2)CC1 [Example 350, 1-{trans-(1S,2S)-4,6-dichloro-1-[4-(3,5-dimethylisoxazol-4-yl)phenoxy]indan-2-yl}-4-(2-methoxyethyl)-[1,4]diazepane] | 1000 to 10000 | 
N[C@@H]1CCCN([C@@H]2Cc3ccccc3[C@H]2Oc2cccc(CN3CCCCC3)c2)C1 (racemic) [Example 58, (R)-1-[rac-trans-(1,2)-1-(3-piperidin-1-ylmethylphenoxy)indan-2-yl]piperidin-3-ylamine] | 1000 to 10000 | 
Cc1noc(C)c1-c1cc(O[C@H]2c3ccccc3C[C@@H]2N2CCCC2)ccc1F [Example 489, 4-[2-fluoro-5-(trans-(1S,2S)-2-pyrrolidin-1-ylindan-1-yloxy)phenyl]-3,5-dimethylisoxazole] |  | 20 to 50
CC(=O)Nc1cccc(O[C@@H]2c3ccccc3C[C@H]2N2C[C@H]3CNC[C@H]3C2)c1 (racemic) [Example 674, N-{3-[rac-trans-(1,2)-2-(hexahydropyrrolo[3,4-c]pyrrol-2-yl)indan-1-yloxy]phenyl}acetamide] | 1000 to 10000 | 
Cc1cc(O[C@@H]2c3ccccc3C[C@H]2N2C[C@H]3CNC[C@H]3C2)cc(C)c1C#N (racemic) [Example 505, 4-[rac-trans-(1,2)-2-(Hexahydropyrrolo[3,4-c]pyrrol-2-yl)indan-1-yloxy]-2,6-dimethylbenzonitrile] | 1000 to 10000 | 
Cc1nnc(C)n1-c1ccc(O[C@H]2c3ccccc3C[C@@H]2N2CCC[C@@H](NCCC(F)(F)F)C2)cc1 [Example 1, ((R)-1-{trans-(1S,2S)-1-[4-(3,5-dimethyl-[1,2,4]triazol-4-yl)phenoxy]indan-2-yl}piperidin-3-yl)-(3,3,3-trifluoropropyl)amine] | 1000 to 10000 | 
N[C@H]1CCCN([C@H]2CCc3ccccc3[C@@H]2Oc2ccc(F)c3cccnc23)C1 (racemic) [Example 188, (S)-1-[rac-trans-(1,2)-1-(5-fluoroquinolin-8-yloxy)-1,2,3,4-tetrahydronaphthalen-2-yl]piperidin-3-ylamine] | 1000 to 10000 | 
c1ccc2c(c1)C[C@@H](N1C[C@H]3CNC[C@H]3C1)[C@@H]2Oc1cccc2[nH]ccc12 (racemic) [Example 504, 4-[rac-trans-(1,2)-2-(Hexahydropyrrolo[3,4-c]pyrrol-2-yl)indan-1-yloxy]-1H-indole] | 1000 to 10000 | 
Cc1cn(-c2ccc(O[C@H]3c4cc(Cl)cc(F)c4C[C@@H]3N3CC[C@@H](O)C3)cc2)c(C(C)C)n1 [Example 720, (R)-1-{trans-(1S,2S)-6-Chloro-4-fluoro-1-[4-(2-isopropyl-4-methyl-imidazol-1-yl)-phenoxy]-indan-2-yl}-pyrrolidin-3-ol] | 1000 to 10000 | 
Nc1ccc2c(O[C@H]3c4ccccc4CC[C@@H]3N3CCC[C@@H](N)C3)cccc2c1 (racemic) [Example 80, (R)-1-[rac-trans-(1,2)-1-(6-aminonaphthalen-1-yloxy)-1,2,3,4-tetrahydronaphthalen-2-yl]piperidin-3-ylamine] | 1000 to 10000 | 
N[C@@H]1CCCN([C@H]2CCc3ccccc3[C@@H]2Oc2ccc(Cl)cc2-c2cc[nH]n2)C1 (racemic) [Example 119, (R)-1-{rac-trans-(1,2)-1-[4-chloro-2-(1H-pyrazol-3-yl)phenoxy]-1,2,3,4-tetrahydronaphthalen-2-yl}piperidin-3-ylamine] | < 1000 | 
Cc1nnc(C)n1-c1ccc(O[C@H]2c3cc(Cl)cc(F)c3C[C@@H]2N2CC[C@@H](O)C2)cc1 [Example 144, (R)-1-{trans-(1S,2S)-6-chloro-1-[4-(3,5-dimethyl-[1,2,4]triazol-4-yl)phenoxy]-4-fluoroindan-2-yl}pyrrolidin-3-ol] | < 1000 | 
N#Cc1ccc(O[C@@H]2c3ccccc3C[C@H]2N2CCC[C@@H](N)C2)cc1Cl (racemic) [Example 521, 4-[rac-trans-(1,2)-2-((R)-3-aminopiperidin-1-yl)indan-1-yloxy]-2-chlorobenzonitrile] | 1000 to 10000 | 

More lines, now with the values ahead:

IC50 [nM] | inhibition at 10 µM [%] | SMILES
< 1000 |  | Cn1ccn(-c2ccc(O[C@H]3c4cc(Cl)cc(Cl)c4C[C@@H]3N3CC[C@@H](O)C3)cc2)c1=O [Example 331, 1-{4-[trans-(1S,2S)-4,6-dichloro-2-((R)-3-hydroxypyrrolidin-1-yl)indan-1-yloxy]phenyl}-3-methyl-1,3-dihydroimidazol-2-one]
< 1000 |  | NC(=O)c1ccccc1O[C@H]1c2ccccc2CC[C@@H]1N1CCC[C@H](N)C1 (racemic) [Example 373, 2-[rac-trans-(1,2)-2-((S)-3-aminopiperidin-1-yl)-1,2,3,4-tetrahydronaphthalen-1-yloxy]benzamide]
< 1000 |  | CC(=O)Nc1cccc(O[C@H]2c3cc(Cl)cc(Cl)c3C[C@@H]2N2CC[C@@H](O)C2)c1 [Example 696, N-{3-[trans-(1S,2S)-4,6-dichloro-2-((R)-3-hydroxypyrrolidin-1-yl)indan-1-yloxy]phenyl}acetamide]
< 1000 |  | NS(=O)(=O)c1ccc(O[C@H]2c3cc(Cl)cc(Cl)c3C[C@@H]2N2CC[C@@H](O)C2)c(F)c1 [Example 741, 4-[trans-(1S,2S)-4,6-Dichloro-2-((R)-3-hydroxy-pyrrolidin-1-yl)-indan-1-yloxy]-3-fluoro-benzenesulfonamide]
< 1000 |  | CC(=O)Nc1cccc(O[C@@H]2c3ccccc3C[C@H]2N2CCC[C@@H](N)C2)c1 (racemic) [Example 679, N-{3-[rac-trans-(1,2)-2-((R)-3-aminopiperidin-1-yl)indan-1-yloxy]phenyl}acetamide]
< 1000 |  | CC(=O)Nc1cccc(O[C@H]2c3cc(Cl)cc(Cl)c3C[C@@H]2N2CCCNCC2)c1 (racemic) [Example 644, N-[3-(rac-trans-(1,2)-4,6-dichloro-2-[1,4]diazepan-1-ylindan-1-yloxy)phenyl]acetamide]
< 1000 |  | CS(=O)(=O)c1ccc(O[C@H]2c3cc(Cl)cc(Cl)c3C[C@@H]2N2CC[C@@H](NCCF)C2)cc1 [Example 226, {(R)-1-[trans-(1S,2S)-4,6-dichloro-1-(4-methanesulfonylphenoxy)indan-2-yl]pyrrolidin-3-yl}-(2-fluoroethyl)amine]
< 1000 |  | CS(=O)(=O)c1ccc(OC2c3ccccc3CC2N2CCC[C@@H](N)C2)c(Cl)c1Cl (mixture of isomers) [Example 31, (R)-1-[rac-trans-(1,2)-1-(2,3-dichloro-4-methanesulfonylphenoxy)indan-2-yl]piperidin-3-ylamine]
< 1000 |  | N[C@@H]1CCCN([C@@H]2Cc3ccccc3[C@H]2Oc2ccc(S(N)(=O)=O)c(Cl)c2Cl)C1 (racemic) [Example 518, 4-[rac-trans-(1,2)-2-((R)-3-aminopiperidin-1-yl)indan-1-yloxy]-2,3-dichlorobenzenesulfonamide]
< 1000 |  | Cc1nnc(C)n1-c1ccc(O[C@H]2c3cc(Cl)ccc3C[C@@H]2N2CC[C@@H](O)C2)c(F)c1 [Example 143, (R)-1-{trans-(1S,2S)-6-chloro-1-[4-(3,5-dimethyl-[1,2,4]triazol-4-yl)-2-fluorophenoxy]indan-2-yl}pyrrolidin-3-ol]
